Results filed as inconclusive are left out. The source made the active and inactive calls. No rule for the calls is given here.
tested on: Mycobacterium tuberculosis non-replicating, growth inhibition; assay: growth inhibition of non-replicating M. tuberculosis (AID 488890)

Row | Structure (SMILES) | IC50
1 | CC(NC(=O)c1cc2cc(Br)ccc2oc1=N)c1ccccc1 (stereo unspecified) | 6.97 µM
2 | Cc1cccc(N2CCN(C(=O)Cn3sc4nc(C)cc(C)c4c3=O)CC2C)c1 (stereo unspecified) | 2.7 µM
3 | O=C(Nc1nc2c(Cl)cccc2s1)c1ccc([N+](=O)[O-])o1 | 1.56 µM
4 | O=C(CNc1cccc2ccccc12)N/N=C/c1ccc([N+](=O)[O-])o1 | 12.1 µM (inactive)
5 | CCOc1cccc2cc(C(=O)NC(C)c3ccccc3)c(=N)oc12 (stereo unspecified) | 32.9 µM (inactive)
6 | COc1c[nH]n(C2CCCCC2)c(=O)c1=O | 8.76 µM
7 | O=C(COC(=O)c1ccccc1)NCc1cccs1 | 37.4 µM (inactive)
8 | COc1cccc(C(=O)N/N=C(/c2ccccc2)c2ccccn2)c1 | 4.04 µM
9 | CCCCC1CCC(C(=O)Nc2ccc(S(=O)(=O)Nc3nccs3)cc2)CC1 (stereo unspecified) | 7.7 µM
10 | CCCC(=O)OCCNc1cc(Sc2nccn2C)c2nonc2c1[N+](=O)[O-] | 2.57 µM
11 | N=C1/C(=C/c2ccc(OC(=O)c3ccco3)cc2)C(=O)N=C2SC=CN12 | 5.02 µM
12 | COc1cc(CNCCc2ccccc2)cc(Cl)c1OCc1ccccc1 | 7.43 µM
13 | O=C(CCC1CCCCC1)NCc1ccc(F)cc1 | 5.27 µM
14 | CCOC(=O)COc1ccc2c(=O)c(-c3ccccc3)coc2c1 | < 0.1 µM
15 | COC(=O)CCC(=O)Nc1sc(Cc2ccccc2)c(C)c1C(N)=O | 13.6 µM (inactive)
16 | CCCCCCNC(=O)c1ccc(Br)o1 | < 0.1 µM
17 | CCN(Cc1ccccc1)c1ccc(/C=N/N=C(N)N)cc1 | 5.74 µM
18 | CCOC(=O)c1ccsc1NC(=O)CCS(=O)(=O)c1ccccc1 | 33.8 µM (inactive)
19 | CC1(C)CC(=O)C(C2NCCc3ccccc32)=C(O)C1 (stereo unspecified) | 30.8 µM (inactive)
20 | O=C(NC(=S)N1CCc2ccccc21)c1ccccc1 | 11.6 µM (inactive)
21 | Clc1ccc(N=c2ssnc2Cl)nc1 | 3.45 µM

Row | Structure (SMILES) | IC50
22 | O=[N+]([O-])c1ccc2nc(SCc3cn4ccccc4n3)[nH]c2c1 | 8.98 µM
23 | Cc1ccc(C(=O)NNC(=S)NC(=O)c2ccc(Cl)cc2)cc1 | 4.01 µM
24 | O=C(c1ccc([N+](=O)[O-])cc1[N+](=O)[O-])N1CCc2ccccc21 | 3.34 µM
25 | Cc1c(Cl)cccc1NC(=O)C(=O)NNC(=O)c1ccccc1F | 1.59 µM
26 | CC(C)N1C(=O)NC(=O)C2(Cc3cc([N+](=O)[O-])ccc3N(C)C2c2ccccc2)C1=O (stereo unspecified) | 14.7 µM (inactive)
27 | Cc1cc(C)c2nc(/N=C(\N)NC(=O)Nc3ccccc3)nc(C)c2c1 | 13.3 µM (inactive)
28 | O=C(NNc1nc2cc3c(cc2s1)OCCO3)c1ccccc1 | 23.5 µM (inactive)
29 | CCCc1nnc(NC(=O)c2cc3ccccc3oc2=O)s1 | 2.34 µM
30 | CCN(CC)CCNC(=O)c1[nH]c2ccc(OCc3ccccc3)cc2c1C | 29.6 µM (inactive)
31 | COc1ccc(-c2noc(CCC(=O)Nc3cccc(C)c3)n2)cc1 | 11.5 µM (inactive)
32 | COC(=O)c1cn(NC(=O)c2cnccn2)c(=O)c2ccccc12 | 8.67 µM
33 | O=C(Oc1ccccc1)c1cccc(COC(=O)c2cnccn2)c1 | 28.6 µM (inactive)
34 | CN1CCN(Cc2cc(C(C)(C)C)c(O)c(C(C)(C)C)c2)CC1 | 11.8 µM (inactive)
35 | C/C(=C\C(=O)c1ccncc1)Nc1ccccc1O | 4.15 µM
36 | CCCNC(=O)OCC12CC3CC(CC(C3)C1)C2 | 0.65 µM
37 | Cc1ccccc1C(=O)NNc1ccc([N+](=O)[O-])cc1 | 20.4 µM (inactive)
38 | CO/N=C/CC(=O)c1ccc(OC)cc1 | 30.5 µM (inactive)
39 | O=C(C/C=N\OCc1ccc([N+](=O)[O-])cc1)Nc1ccc(Br)cc1 | 10.9 µM (inactive)
40 | CCOC(=O)Nc1cccc(OCC(=O)Nc2ccc(OC)cc2OC)c1 | 16.5 µM (inactive)
41 | CC1(c2nnc(-c3ccc(F)cc3)o2)CC(c2cccc(Cl)c2)=NO1 (stereo unspecified) | 2.9 µM
42 | COc1ccc2cc(C(=O)NCc3ccccc3CN3CCCC3)ccc2c1 | 17.7 µM (inactive)

Row | Structure (SMILES) | IC50
43 | Cc1ccc(N2NC(=O)/C(=C/C=C/c3ccco3)C2=O)cc1C | 3.72 µM
44 | CCOC(=O)COc1ccc2c(c1)c(C(C)=O)c(C)n2Cc1ccccc1 | 4.62 µM
45 | COc1cccc(C(=O)Nc2nnc(-c3ccc(F)cc3)o2)c1 | 8.17 µM
46 | COc1cccc(-c2nnc(NC(=O)c3ccc(S(=O)(=O)N(CC(C)C)CC(C)C)cc3)o2)c1 | 13.7 µM (inactive)
47 | CC1C/C(=N/N2C(=O)CSC2=S)CC(C)(C)C1 (stereo unspecified) | 30.6 µM (inactive)
48 | O=[N+]([O-])c1ccc(/C=N/n2c(CO)nc3ccccc32)s1 | 1.18 µM
49 | O=C(O)c1ccccc1C(=O)NNc1ccc(F)cc1 | 12.4 µM (inactive)
50 | COc1ccc(CN2C(=O)/C(=C/c3ccncc3)SC2=S)cc1 | 39.3 µM (inactive)
51 | O=c1oc(-c2ccccc2[N+](=O)[O-])nc2ccccc12 | 18.9 µM (inactive)
52 | O=[N+]([O-])c1ccc(N2CCN(Cc3ccc([N+](=O)[O-])o3)CC2)cc1 | < 0.1 µM
53 | CC1CCN(CCc2nc3cc(NC(=O)COc4ccc(Cl)cc4)ccc3n2C)CC1 | 17.4 µM (inactive)
54 | CCc1ccc(OCC(=O)NNC(=O)c2cnccn2)c(Br)c1 | 4.69 µM
55 | O=C(Nc1nnc(C2CC2)o1)c1ccc(S(=O)(=O)N2CCCCC2)cc1 | 29.8 µM (inactive)
56 | Cc1occc1C(=O)N/N=C/c1ccc[nH]1 | 11.9 µM (inactive)
57 | COc1ccc(-c2[nH]ncc2CN2CCCCCCC2)c(OC)c1 | 11 µM (inactive)
58 | CCOc1cc(/C=N/NC(=O)c2ccccn2)ccc1OC(=O)c1cccs1 | 5.55 µM
59 | CCOC(=O)Cc1c(C)nc2c(-c3cccc(Br)c3)c[nH]n2c1=O | 4.13 µM
60 | Cc1ccc(S(=O)(=O)Nc2cccc3ncccc23)s1 | 5.34 µM
61 | CC(C)(C)c1cc(C(=O)N/N=C/c2ccc([N+](=O)[O-])s2)n[nH]1 | 5.5 µM
62 | COc1cc(CNCCNC(=O)c2nonc2N)ccc1OCc1ccc(Cl)cc1 | 12.2 µM (inactive)
63 | C/C(=N\NC(=O)c1ccc(CN2CCc3ccccc3C2)cc1)c1ccccc1O | 0.7 µM

Row | Structure (SMILES) | IC50
64 | CC(NC(=O)COc1ccccc1F)C1CC2CCC1C2 (stereo unspecified) | 0.42 µM
65 | CCC(C)c1ccc(O)c(/C=N/O)c1 (stereo unspecified) | 2.43 µM
66 | Cc1cc2n(n1)SC(Nc1ccccc1)N2 (stereo unspecified) | 26.7 µM (inactive)
67 | CC(=O)Nc1sc2c(c1-c1nc3ccccc3s1)CCN(C(C)C)C2 | 6.35 µM
68 | Cc1nn2c(NCCN(C)C)c3c(nc2c1-c1ccccc1)CCCC3 | 5.07 µM
69 | O=C(OCc1cccc([N+](=O)[O-])c1)c1ccc2ccccc2n1 | 7.25 µM
70 | Cc1nnc(-c2ccccc2)c(=O)n1/N=C/c1c(O)ccc2ccccc12 | 1.31 µM
71 | Cc1ccc(C(=O)N/N=C\c2ccc(-c3ccc(Cl)cc3)o2)cn1 | 7.02 µM
72 | COc1ccc(C(=O)Nc2nnc(-c3ccccc3)o2)cc1OC | 10.4 µM (inactive)
73 | CC(C)(C)c1ccc(OCCC(=O)OCC(=O)NC2CCCCC2)cc1 | 9.3 µM
74 | COC(=O)COc1ccc2cc(-c3ccc(OC)cc3)c(=O)oc2c1 | 1.41 µM
75 | COc1ccc([N+](=O)[O-])c(S(=O)(=O)c2ccc(Cl)cc2)n1 | 1 µM
76 | CCCCN(C)S(=O)(=O)c1ccc(C(=O)Nc2nnc(-c3ccco3)o2)cc1 | 23 µM (inactive)
77 | Cc1cccc(C)c1N1C(=O)CC(N2CCSCC2)C1=O (stereo unspecified) | 3.44 µM
78 | O=C(NNC1=C(C(=O)C(F)(F)F)CCC1)c1ccccc1Cl | 1.32 µM
79 | O=[N+]([O-])c1ccc(CN2CCN(c3ccccc3Cl)CC2)o1 | 3.83 µM
80 | C=CCn1c(=O)c(C(=O)Nc2cccnc2)c(O)c2ccccc21 | 7.58 µM
81 | O=C(NNC(=O)C12CC3CC(CC(C3)C1)C2)c1ccccn1 | 6.79 µM

Source: PubChem BioAssay AID488890 (Southern Research Specialized Biocontainment Screening …, 2010)
